From PubChem BioAssay (NCI)
Several values for one entry are separate records, joined by “and”; a condition that tells them apart may be missing. Identical values can stand only once.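 96-well plates; 48 h exposure; 5 concentrations. Endpoints by linear interpolation between flanking doses. Not reached: highest tested concentration assigned. Here, GI50 denotes the concentration required for 50% inhibition of growth. Definition used: TGI = concentration required for complete inhibition of growth.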

How the values were obtained:
Assay in all cases: NCI-60 cell line screen, 48 h
MALME-3M melanoma = test system: MALME-3M melanoma
SK-MEL-28 melanoma = test system: SK-MEL-28 melanoma
T-47D breast = test system: T-47D breast
DU-145 prostate = test system: DU-145 prostate
BT-549 breast = test system: BT-549 breast
NCI-H23 lung = test system: NCI-H23 lung
KM12 colon = test system: KM12 colon
SNB-75 CNS = test system: SNB-75 CNS
SF-268 CNS = test system: SF-268 CNS
LOX IMVI melanoma = test system: LOX IMVI melanoma

SMILES	TGI (MALME-3M melanoma)	TGI (SK-MEL-28 melanoma) [µM]	TGI (T-47D breast) [µM]	TGI (DU-145 prostate) [µM]	TGI (BT-549 breast) [µM]	TGI (NCI-H23 lung) [µM]	TGI (KM12 colon) [µM]	TGI (SNB-75 CNS) [µM]	TGI (SF-268 CNS) [µM]	TGI (LOX IMVI melanoma) [µM]	GI50 (SK-MEL-28 melanoma) [µM]	GI50 (T-47D breast) [µM]	GI50 (DU-145 prostate) [µM]	GI50 (BT-549 breast) [µM]	GI50 (NCI-H23 lung) [µM]	GI50 (KM12 colon) [µM]	GI50 (SNB-75 CNS) [µM]	GI50 (SF-268 CNS) [µM]	GI50 (LOX IMVI melanoma) [µM]	GI50 (MALME-3M melanoma) [µM]
O=C1c2ccccc2C(=O)c2c1ccc1c3ccccc3n(-c3ccccc3)c21	44.6 µM	34.2	45.5	33.4	51.3	34	50.1	44.9	54	30.4	–	–	–	–	–	–	–	–	–	–
CC[C@H](C)[C@H](NC(=O)CN(C)C)C(=O)N(C)[C@H](C[C@@H](OC(C)=O)c1nc(C(=O)NC23C4C5C2C2C3C4C52C(=O)OC)cs1)C(C)C (stereo not given in full)	> 33.2 µM	> 33.2	> 33.2	> 33.2	> 20.1	> 33.2	> 33.2	> 33.2	> 33.2	> 33.2	1.38	> 33.2	0.176	0.431	1.42	0.74	0.119	0.668	0.321	–
O=C(NCCN1CCOCC1)c1cc2c(Oc3ccc(NC(=O)C4(C(=O)Nc5ccc(F)cc5)CC4)cc3)ccnc2[nH]1	14.4 µM	19.4	46	> 100	> 54.8	> 75.1	> 40.9	9.64	> 100	39.6	4.37	4.43	10.6	7.85	1.59	0.412	0.893	6.4	2.05	1.1
COc1cc2c(c3oc4c(O)cccc4c(=O)c13)CC(C(C)(O)CCl)O2 (stereo not given)	8.12 µM	3.74	13.5	10.3	12.5	6.14	4.56	8.18	3.33	0.026	–	–	–	–	–	–	–	–	–	–
COc1cccc(/C=C\C(=O)c2ccccc2)c1	31.4 µM	15	41.3	20.5	24.3	44.8	4.91	23	28.9	7.38	4.31	9.72	4.73	10.8	10.4	2.3	8.9	5.96	2.42	14.3
Nc1nc(N)c(CCCCc2ccc([N+](=O)[O-])cc2)c(N)n1	> 100 µM	–	> 100	> 100	> 100	> 100	> 100	> 100	> 100	> 100	–	–	–	–	–	–	–	–	–	–
CC1OC(O[C@@H]2C=C3CC[C@@H]4[C@H](CC[C@]5(C)[C@@H](c6ccc(=O)oc6)CC[C@]45O)[C@@]3(C)CC2)C(O)C(O)C1O (stereo not given in full)	0.00238 µM and 0.00139 µM	–	–	0.0153	–	–	–	0.003	0.00353	–	0.00281	0.000846	–	0.00615	–	–	–	–	–	–
COC(=O)[C@]12CC[C@@H](C)[C@H](C)[C@@H]1C1=CC[C@@H]3[C@@]4(C)C[C@@H](OC(C)=O)[C@H](OC(C)=O)[C@@](C)(COC(C)=O)[C@@H]4[C@H](O)C[C@@]3(C)[C@]1(C)CC2	74.8 µM	> 100	8.04	> 100	81.4	> 100	> 100	> 100	> 100	> 100	2.74	1.03	3.55	1.4	2.25	1.03	4.32	2.62	0.54	3.82
N#Cc1ccc2c(-c3ccnc(NC4CC4)n3)c(-c3ccc(F)cc3)nn2c1	> 25 µM	> 25	> 25	> 25	> 25	> 25	> 25	> 25	> 25	> 25	> 25	> 25	> 25	> 25	> 25	> 25	> 17.2	> 25	> 25	> 25
ClC/C=C/CSc1ncnc2nc[nH]c12	> 100 µM	> 100	> 100	> 100	> 100	> 100	> 100	> 100	> 100	> 100	> 100	> 100	> 100	> 100	> 100	> 100	> 100	> 100	> 100	> 100
Oc1ccccc1/C=N\NC(=S)Nc1ccc(F)cc1	8.35 µM	> 100	60.1	> 100	> 89.9	> 100	45	14.9	> 73.6	> 79.7	2	3.34	1.97	2.35	2.37	0.799	1.66	0.95	0.708	1.2
COc1ccc2c(Cl)cc(NC(=S)Nc3ccccc3)nc2c1	69.4 µM	97.9	45.3	> 100	> 100	73.7	37.9	52.1	57.2	44	–	–	–	–	–	–	–	–	–	–
COc1ccc(/C(=C(\c2ccccc2)[N+](=O)[O-])c2ccc(OCCN3CCCC3)cc2)cc1	3.43 µM	3.38	15.2	21.5	17.6	18.6	12.4	8.17	20	6.73	1.77	1.06	9.52	4.51	4.94	2.16	2.24	5.99	2.05	1.57
CC1=C(\C=C/C(C)=C/C=C/C(C)=C/C=C/C=C(C)\C=C\C=C(C)/C=C/C2=C(C)CCCC2(C)C)C(C)(C)CCC1	> 100 µM	> 100	> 100	> 100	> 100	> 100	> 100	> 100	> 100	> 100	–	–	–	–	–	–	–	–	–	–
